The values below come from US20250320213A1, “Nitrogen-Containing Heterocyclic Compounds” (Pfizer Inc., priority 2024, published 2025).

For orientation: EC50 means the midpoint of the concentration-response curve. Usually IC50 stands for the concentration at which inhibition is half-maximal. Read a high IC50 as lower potency.

The structures appear in SMILES notation. Counter-ions that a name gives are not always drawn. Like-named read-outs stand apart in the source and are kept apart here.

Assay [1] addresses T1, STAT6 (Homo sapiens, UniProt P42226).
T1 construct: stably transfected HaCaT keratinocyte cell line, which expresses NanoLuc luciferase reporter gene under the transcriptional control of the STAT6 responsive promoter; endogenous in cells; host or cells: HaCaT keratinocyte reporter cell line (stably transfected with a NanoLuc reporter)
T1 sequence (P42226 1-847): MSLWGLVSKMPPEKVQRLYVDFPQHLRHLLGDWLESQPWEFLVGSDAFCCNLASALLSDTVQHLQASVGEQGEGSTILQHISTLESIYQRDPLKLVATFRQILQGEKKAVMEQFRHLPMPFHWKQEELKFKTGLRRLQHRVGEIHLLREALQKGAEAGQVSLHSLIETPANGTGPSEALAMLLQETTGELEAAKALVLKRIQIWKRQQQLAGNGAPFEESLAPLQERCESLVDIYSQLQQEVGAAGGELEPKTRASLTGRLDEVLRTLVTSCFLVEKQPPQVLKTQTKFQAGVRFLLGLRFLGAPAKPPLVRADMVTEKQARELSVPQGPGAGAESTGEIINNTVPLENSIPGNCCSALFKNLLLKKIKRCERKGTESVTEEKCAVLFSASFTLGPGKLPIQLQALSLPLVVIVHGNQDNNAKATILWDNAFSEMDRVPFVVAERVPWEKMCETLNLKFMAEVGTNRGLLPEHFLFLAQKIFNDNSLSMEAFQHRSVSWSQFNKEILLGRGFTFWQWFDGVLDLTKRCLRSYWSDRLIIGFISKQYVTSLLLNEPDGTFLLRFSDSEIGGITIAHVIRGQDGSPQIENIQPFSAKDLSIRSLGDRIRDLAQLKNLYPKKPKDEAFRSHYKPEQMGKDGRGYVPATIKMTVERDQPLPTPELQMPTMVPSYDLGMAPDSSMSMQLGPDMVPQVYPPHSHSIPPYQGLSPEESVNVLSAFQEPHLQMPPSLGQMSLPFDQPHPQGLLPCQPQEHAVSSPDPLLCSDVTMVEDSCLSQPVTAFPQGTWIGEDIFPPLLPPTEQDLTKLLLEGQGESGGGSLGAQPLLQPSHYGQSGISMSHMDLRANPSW
As to the kind of experiment: STAT6 Reporter Luciferase Assay (IL-13 stimulated HaCaT keratinocyte NanoLuc reporter cells). The class given is cell-based. Conditions: read-out: Reporter EC50. A digest of the protocol:
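Compounds were tested as 11-point, 4-fold series in duplicate, applied for 2 h at 37 °C in low-serum (2% FBS) DMEM. The cells were a stable HaCaT line with NanoLuc under a STAT6-responsive IL-13Ra2 promoter. After 4 h with 0.12 nM IL-13, Nano-Glo luminescence was measured.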

Assay [2] relates to CCL17 secretion in peripheral human whole blood. As to the kind of experiment: Human Whole Blood (HWB) CCL17 TR-FRET Assay (IL-13 stimulated CCL17 secretion). In kind it is cell-based. On the procedure:
The IC50 (half-maximal concentration required for inhibition) of compounds for the inhibition of CCL17 secretion in peripheral human whole blood, stimulated through the IL-13-IL-13 receptor/IL-4 receptor pathway was evaluated with a TR-FRET sandwich ELISA CCL17 (TARC) Assay Kit (Bioauxilium).
Test compounds (solubilized and serially diluted in DMSO, in an 11 point, 3-fold dilution series in duplicate) were spotted, 80 nL per well, into a 384 well v-bottom polypropylene plate. Human whole blood was collected from a peripheral vein, 714 units of sodium heparin was added for every 50 mL of blood collected. Sixty μL per well of blood was added to the compound plate. The blood plate was incubated for two hours at 37° C. After two hours, CCL17 production was stimulated with the addition of 20 μL per well of IL13 (R&D Systems) in HBSS with calcium and magnesium, with a final concentration of 10 ng/mL IL13. The plate containing blood, compound, and IL-13 was incubated at 37° C. for 48 hours, to allow for CCL17 production. After 48 hours, the plate was centrifuged at 1,500 revolutions per minute (RPM) for 7 minutes, with no braking. The CCL17 TR-FRET Assay Kit detection reagent was prepared according to kit instructions and 4 μL per well of the antibody cocktail was added to a 384-well white low volume non-binding coated plate (Corning). Sixteen μL of serum from the centrifuged blood plate was transferred to the detection plate containing the TR-FRET antibody cocktail. The plate was centrifuged briefly, then covered and incubated 16 hours at room temperature. The plate was then read on an EnVision 2105 multilabel reader (PerkinElmer) with settings for TR-FRET Ratio=10,000×(fluorescence intensity 665 nm/fluorescence intensity 615 nm).

[3] abbreviates: IL-13 stimulated HaCaT STAT6 NanoLuc reporter cells.
The mark [4] stands for this setting: Homo sapiens, 48 h, human whole blood, IL-13 stimulated.
Where [5] appears, read: STAT6 NanoLuc luciferase reporter, IL-13 stimulated HaCaT keratinocyte cells.
The mark [6] stands for this setting: inhibition of CCL17 secretion in human whole blood, 10 ng/mL IL13, 48 hours.
[7] abbreviates: Homo sapiens, 48 h, inhibition of CCL17 secretion in human whole blood, 10 ng/mL IL13, 48 hours.

For the compound `CC(n1nc(C(=O)NCc2ccc(NC(=O)N(C)C)cc2)c2c1[C@@H](C)CN(c1ccc(C(=O)N(C)C)cn1)C2)C(F)(F)F` (mixture of isomers) [Example 262, (S)-5-(5-(dimethylcarbamoyl)pyridin-2-yl)-N-(4-(3,3-dimethylureido)benzyl)-7-methyl-1-((RS)-1,1,1-trifluoropropan-2-yl)-4,5,6,7-tetrahydro-1H-pyrazolo[4,3-c]pyridine-3-carboxamide], the EC50 in assay [1] (setting [3]) was 1 nM. The IC50 in assay [2] (setting [4]) turned out to be 6 nM.

Take `COCC(C)n1nc(C(=O)NCc2ccc(NC(=O)N(C)C)cc2)c2c1[C@@H](C)CN(c1ccc(C(=O)N(C)C)cn1)C2` (mixture of isomers) [Example 344, (S)-5-(5-(dimethylcarbamoyl)pyridin-2-yl)-N-(4-(3,3-dimethylureido)benzyl)-1-((RS)-1-methoxypropan-2-yl)-7-methyl-4,5,6,7-tetrahydro-1H-pyrazolo[4,3-c]pyridine-3-carboxamide]: in assay [1] (setting [3]), the EC50 came to 1 nM. The same compound displayed an IC50 in assay [2] (setting [4]) of 8 nM.

`CC(n1nc(C(=O)NCc2ccc(NC(=O)N(C)C)cc2)c2c1[C@H](C)CN(c1ccc(C(=O)N(C)C)cn1)C2)C(F)(F)F` (mixture of isomers) [Example 553, (R)-5-(5-(dimethylcarbamoyl)pyridin-2-yl)-N-(4-(3,3-dimethylureido)benzyl)-7-methyl-1-((RS)-1,1,1-trifluoropropan-2-yl)-4,5,6,7-tetrahydro-1H-pyrazolo[4,3-c]pyridine-3-carboxamide]: in assay [1] (setting [3]), the EC50 is 4 nM. The same compound had an IC50 in assay [2] (Homo sapiens, 48 h, human whole blood, 10 ng/mL IL13, 48 hours) of 18 nM.

Turning to `CC(C)n1nc(C(=O)NCc2ccc(NC(=O)N3C[C@H]4CC[C@@H](C3)N4)c(F)c2)c2c1[C@@H](C)CN(c1ccc(C(=O)N(C)C)cc1)C2` (mixture of isomers) [Example 573, (S)-N-(4-((1RS,5SR)-3,8-diazabicyclo[3.2.1]octane-3-carboxamido)-3-fluorobenzyl)-5-(4-(dimethylcarbamoyl)phenyl)-1-isopropyl-7-methyl-4,5,6,7-tetrahydro-1H-pyrazolo[4,3-c]pyridine-3-carboxamide], the EC50 in assay [1] (setting [3]) came to 1 nM. In addition, half-maximal inhibition in assay [2] (human whole blood, 10 ng/mL IL13, 48 hours) (IC50) required 11 nM.

Regarding `CC1CN(c2ccc(C(=O)N(C)C)cn2)Cc2c(C(=O)NCc3ccc(NC(=O)N(C)C)cc3)nn(C)c21` (racemic) [Example 6, rac-(R)-5-(5-(Dimethylcarbamoyl)pyridin-2-yl)-N-(4-(3,3-dimethylureido)benzyl)-1,7-dimethyl-4,5,6,7-tetrahydro-1H-pyrazolo[4,3-c]pyridine-3-carboxamide], the EC50 in assay [1] (setting [5]) stood at 4 nM. In assay [2] (setting [6]), this compound had an IC50 of 25 nM.

With `Cc1nc(C(=O)NCc2ccc(NC(=O)N(C)C)cc2)c2n1C(C)CN(c1ccc(C(=O)N(C)C)cn1)C2` (racemic) [Example 9, rac-(R)-7-(5-(Dimethylcarbamoyl)pyridin-2-yl)-N-(4-(3,3-dimethylureido)benzyl)-3,5-dimethyl-5,6,7,8-tetrahydroimidazo[1,5-a]pyrazine-1-carboxamide formate], the EC50 in assay [1] (setting [5]) was 15 nM. In addition, in assay [2] (setting [6]), inhibition was half-maximal at 27 nM (IC50).

Turning to `CN(C)C(=O)Nc1ccc(CNC(=O)c2nn(C)c3c2CC(c2ccc(C(=O)N(C)C)cc2)CC3)cc1` (racemic) [Example 26, rac-(R)-5-(4-(Dimethylcarbamoyl)phenyl)-N-(4-(3,3-dimethylureido)benzyl)-1-methyl-4,5,6,7-tetrahydro-1H-indazole-3-carboxamide], in assay [1] (setting [5]), the EC50 turned out to be 69 nM. This compound also registered an IC50 in assay [2] (setting [7]) of 561 nM.

For `CC1Cc2c(c(C(=O)NCc3ccc(NC(=O)N(C)C)cc3)nn2C)CN1c1ccc(C(=O)N(C)C)cn1` (racemic) [Example 49, rac-(R)-5-(5-(dimethylcarbamoyl)pyridin-2-yl)-N-(4-(3,3-dimethylureido)benzyl)-1,6-dimethyl-4,5,6,7-tetrahydro-1H-pyrazolo[4,3-c]pyridine-3-carboxamide], in assay [1] (setting [5]), the EC50 was found to be 9 nM. In assay [2] (setting [7]), this compound displayed a concentration for half-maximal inhibition (IC50) of 39 nM.

Consider `CC1c2c(C(=O)NCc3ccc(NC(=O)N(C)C)cc3)nn(C)c2CCN1c1ccc(C(=O)N(C)C)cn1` (racemic) [Example 55, rac-(R)-5-(5-(dimethylcarbamoyl)pyridin-2-yl)-N-(4-(3,3-dimethylureido)benzyl)-1,4-dimethyl-4,5,6,7-tetrahydro-1H-pyrazolo[4,3-c]pyridine-3-carboxamide], for which, in assay [1] (setting [5]), the EC50 amounted to 10 nM. For the same compound, the IC50 in assay [2] (setting [7]) stood at 12 nM.

`CCC1CN(c2ccc(C(=O)N(C)C)cn2)Cc2c(C(=O)NCc3ccc(NC(=O)N(C)C)cc3)n[nH]c21` (racemic) [Example 57, rac-(R)-5-(5-(dimethylcarbamoyl)pyridin-2-yl)-N-(4-(3,3-dimethylureido)benzyl)-7-ethyl-4,5,6,7-tetrahydro-1H-pyrazolo[4,3-c]pyridine-3-carboxamide]: the EC50 in assay [1] (setting [5]) worked out at 98 nM. The same compound came in with an IC50 in assay [2] (setting [7]) of 182 nM.

In the case of `CC(C)n1nc(C(=O)NCc2ccc(NC(=O)N3CCC[C@@H](N(C)C)C3)cc2)c2c1[C@@H](C)CN(c1ccc(C(=O)N(C)C)cc1)C2` [Example 754, (S)-N-(4-((R)-3-(dimethylamino)piperidine-1-carboxamido)benzyl)-5-(4-(dimethylcarbamoyl)phenyl)-1-isopropyl-7-methyl-4,5,6,7-tetrahydro-1H-pyrazolo[4,3-c]pyridine-3-carboxamide], the EC50 in assay [1] (setting [3]) is 2 nM.

Take `CC(C)n1nc(C(=O)NCc2ccc(NC(=O)N3CCC[C@H](N(C)C)C3)cc2)c2c1[C@@H](C)CN(c1ccc(C(=O)N(C)C)cc1)C2` [Example 755, (S)-N-(4-((S)-3-(dimethylamino)piperidine-1-carboxamido)benzyl)-5-(4-(dimethylcarbamoyl)phenyl)-1-isopropyl-7-methyl-4,5,6,7-tetrahydro-1H-pyrazolo[4,3-c]pyridine-3-carboxamide]: in assay [1] (setting [3]), the EC50 turned out to be 2 nM.

As for `CC(C)n1nc(C(=O)NCc2ccc(NC(=O)N3CC[C@H](CN(C)C)C3)cc2)c2c1[C@@H](C)CN(c1ccc(C(=O)N(C)C)cc1)C2` [Example 756, (S)-N-(4-((R)-3-((dimethylamino)methyl)pyrrolidine-1-carboxamido)benzyl)-5-(4-(dimethylcarbamoyl)phenyl)-1-isopropyl-7-methyl-4,5,6,7-tetrahydro-1H-pyrazolo[4,3-c]pyridine-3-carboxamide], the EC50 in assay [1] (setting [3]) stood at 1 nM.

With `CC(C)n1nc(C(=O)NCc2ccc(NC(=O)N3CCC4(CCCN(C)C4)CC3)cc2)c2c1[C@@H](C)CN(c1ccc(C(=O)N(C)C)cc1)C2` [Example 757, (S)-N-(4-((5-(4-(dimethylcarbamoyl)phenyl)-1-isopropyl-7-methyl-4,5,6,7-tetrahydro-1H-pyrazolo[4,3-c]pyridine-3-carboxamido)methyl)phenyl)-2-methyl-2,9-diazaspiro[5.5]undecane-9-carboxamide], the EC50 in assay [1] (setting [3]) amounted to 0.3 nM.
